{
  "source": "a melting point compilation (Tetko et al.; mined from patent text by program, amines drawn as free bases though some values may be those of a salt)",
  "data": [
    {"units": {"melting point": "°C"}, "values": [
      {"smiles": "CCOC(=O)C=C1CCC(n2nc(-c3c(-c4ccccc4)nn4ccccc34)ccc2=O)CC1", "note": "(centres undefined)", "melting point": "166 to 168"},
      {"smiles": "COc1ccc(Cl)cc1C(=O)NC1COc2cc(C)ccc2C1O", "note": "(centres undefined)", "melting point": "151 to 152"},
      {"smiles": "CC(C(N)=O)c1ccc2c(c1)CCc1cccnc1O2", "note": "(centres undefined)", "melting point": "162 to 165"},
      {"smiles": "CC(=O)Nc1nnc(SCC(O)(Cn2cncn2)c2ccc(Cl)cc2Cl)s1", "note": "(centres undefined)", "melting point": 132},
      {"smiles": "CSc1nc(=O)n(Cc2ccccc2)c2ncn(C)c12", "melting point": "268 to 270"},
      {"smiles": "CCCn1cc(C(=O)NCc2ccc(Cl)cc2)c(=O)c2cc(C#CCO)ccc21", "melting point": "183 to 184"},
      {"smiles": "C[C@@H]1CN(CC(=O)Nc2ccccc2Cl)C[C@H](C)N1c1ncnc2c1ncn2C", "melting point": "221 to 222"},
      {"smiles": "CCOC(=O)c1c(NCc2ccccc2)n[nH]c1C", "melting point": "149 to 159"},
      {"smiles": "CCc1nc2cccc(C)c2c(=O)n1C1CCC(=O)NC1=O", "note": "(centres undefined)", "melting point": "228 to 230"},
      {"smiles": "CC(C)(C)NC(=O)NCc1cccc2c1C(=O)N(C1CCC(=O)NC1=O)C2=O", "note": "(centres undefined)", "melting point": "186 to 188"},
      {"smiles": "COC(=O)C(CNC(=O)C1CC1)c1cccc2ccccc12", "note": "(centres undefined)", "melting point": "140 to 142"},
      {"smiles": "COc1ccc2cc3ccccc3cc2c1", "melting point": "182 to 184"},
      {"smiles": "COc1cc2c3c(c1O)C1(C=CC(=O)C=C1)CC3N(C)CC2", "note": "(centres undefined)", "melting point": 225},
      {"smiles": "CCON1C(=O)c2ccccc2C1=O", "melting point": "95 to 97"},
      {"smiles": "COc1cc(C(O)c2ccc3ccccc3c2)ccc1OCc1ccccc1", "note": "(centres undefined)", "melting point": "113 to 114"},
      {"smiles": "FC(F)(F)c1cc2cc3cc4cc(Sc5ccccc5)c(Sc5ccccc5)cc4cc3cc2cc1C(F)(F)F", "melting point": "> 260"},
      {"smiles": "O=C(CN1CCC(O)CC1)Nc1cccc2c1C(=O)c1c-2n[nH]c1-c1ccc(N2CCOCC2)cc1", "melting point": 245},
      {"smiles": "CCOC(=O)c1cn(-c2ccccc2)c2occc2c1=O", "melting point": "168 to 170"},
      {"smiles": "BrCCCCCCOc1nc(-c2ccccc2)c(-c2ccccc2)n1-c1ccccc1", "melting point": "87 to 89"},
      {"smiles": "CC(=O)OC1CSC(Oc2cncc(-c3ccc(C#N)cc3C)c2)C(OC(C)=O)C1OC(C)=O", "note": "(centres undefined)", "melting point": "136 to 138"},
      {"smiles": "CCOc1cc(Oc2ccc(S(C)(=O)=O)nc2)cc2cc(C3=NCC(CCO)S3)[nH]c12", "note": "(centres undefined)", "melting point": "147 to 148"},
      {"smiles": "Cc1cc(C)c2c(O)c([N+](=O)[O-])c(=O)oc2c1", "melting point": "186 to 187"},
      {"smiles": "Cc1nc(N2CCN(CCC3CC3)C2=O)sc1C(=O)NCc1ccc(F)cc1", "melting point": "122 to 123"},
      {"smiles": "O=C1CSCN1CCCCN1CCN(c2ccc(F)cc2)CC1", "melting point": "83 to 85"},
      {"smiles": "CC1(CC(=O)O)OCCc2nc(-c3ccc(Cl)cc3)sc21", "note": "(centres undefined)", "melting point": "162 to 164"},
      {"smiles": "NC(=O)C1(c2ccccc2)CCN(Cc2ccccc2)CC1", "melting point": "117 to 118"},
      {"smiles": "Cn1c([N+](=O)[O-])cnc1COc1ccc(SC#N)cc1", "melting point": 140},
      {"smiles": "O=C(O)Cc1ccc2c(c1)CCc1ccccc1S2", "melting point": "111 to 112"},
      {"smiles": "COc1ccc(S(=O)(=O)C2(C(=O)NO)CCCC2)cc1", "melting point": "89 to 91"},
      {"smiles": "Cc1cc2c(c3ccc(=O)[nH]c13)OC(CNC(=O)CN(C)C)C2", "note": "(centres undefined)", "melting point": "> 250"},
      {"smiles": "CCCCCCCCCCc1nnnn1CC(=O)Nc1c(C(C)C)cccc1C(C)C", "melting point": "71 to 73"},
      {"smiles": "Oc1ccc(Br)cc1CNc1cc(Cl)cc(Cl)c1", "melting point": "125 to 126"},
      {"smiles": "C#CC(C)N1CCNC1=O", "note": "(centres undefined)", "melting point": "90 to 92"},
      {"smiles": "Fc1ccc([C@@]2(Cn3nc[nH]c3=S)O[C@@H]2c2ccccc2F)c(F)c1", "note": "(relative stereo)", "melting point": "144 to 148"},
      {"smiles": "CS(=O)(=O)c1ccc(Oc2ccc(O)cc2)cc1", "melting point": "129 to 130"},
      {"smiles": "COc1ccc(N2C(=O)O[C@H](COc3ccc(C#N)cc3)[C@@H]2C)cc1", "melting point": "127 to 128"},
      {"smiles": "O=C(O)CN1C(=O)C(=CC=Cc2ccccc2-c2ccccc2)SC1=S", "melting point": "246 to 249"},
      {"smiles": "C[Si](C)(C)CCCCCCCCCCCNc1ccc(C(=O)O)cc1", "melting point": "121 to 122"},
      {"smiles": "C#CCOc1ccc(C(=O)C=Cc2c[nH]c3ccccc23)c(O)c1", "melting point": "228 to 230"},
      {"smiles": "CCCCCCCCN1C=C(C)C(=c2c(C)cc(=CC=C3C=C(C(C)(C)C)C(=O)C(C(C)(C)C)=C3)cc2C)C(C)=C1", "melting point": "> 280"},
      {"smiles": "CCNC(=O)c1cccc(-c2ccc3ncn(CCc4ccc(OC)c(OC)c4)c3n2)c1", "melting point": "152 to 153"},
      {"smiles": "CC(C)(C)OC(=O)N1CCN(c2ncnc3c2cnn3Cc2cccc(Br)n2)CC1", "melting point": "126 to 128"},
      {"smiles": "CC(=O)NC[C@H]1CN(c2ccc(N3CCC(F)(CO)CC3)c(F)c2)C(=O)O1", "melting point": "154 to 156"},
      {"smiles": "O=C1N=CC(OCC2CCC2)(C(F)(F)F)c2cc(F)ccc2N1", "note": "(centres undefined)", "melting point": "190 to 191"},
      {"smiles": "OCC1OC(n2c(Cl)nc3c(Br)c(Br)ccc32)C(O)C1O", "note": "(centres undefined)", "melting point": "167 to 169"},
      {"smiles": "O=c1[nH]c2ccccc2c(-c2ccccc2)c1-c1csc(-c2ccncc2)n1", "melting point": "> 250"},
      {"smiles": "N#Cc1cc(O)c(O)c([N+](=O)[O-])c1", "melting point": "175 to 178"},
      {"smiles": "CC(=O)c1c(C=O)[nH]c(-c2ccncc2)c1C", "melting point": "208 to 209"},
      {"smiles": "Cc1noc(NS(=O)(=O)c2ccccc2-c2ccc(-c3ncco3)cc2C(O)c2ncc(-c3ccccc3)o2)c1C", "note": "(centres undefined)", "melting point": "125 to 135"}
    ]}
  ]
}
